These results are taken from patent publication US10487348B2, “3-alpha-hydroxysteroid dehydrogenase mutants and process for the preparation of ursodeoxycholic acid” (Pharmazell GmbH, priority 2014, dated 2019).

In assay [1] the target is T1, Comamonas testosteroni 3α-HSDH, wild type, N-terminal hexahistidine tag (Comamonas testosteroni, UniProt P80702).
T1 sequence (P80702 1-257): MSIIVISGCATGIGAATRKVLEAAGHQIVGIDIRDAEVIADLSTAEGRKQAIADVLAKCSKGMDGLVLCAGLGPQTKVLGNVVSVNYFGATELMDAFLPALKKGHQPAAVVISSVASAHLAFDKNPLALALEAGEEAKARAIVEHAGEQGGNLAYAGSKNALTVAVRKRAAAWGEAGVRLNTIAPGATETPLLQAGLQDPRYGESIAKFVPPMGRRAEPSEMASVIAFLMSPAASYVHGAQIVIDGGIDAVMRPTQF
The assay is described as follows: Michaelis-Menten kinetics of wild-type 3α-HSDH with N-terminal His tag. The class given is biochemical. Particulars: Table 14, substrate DHCA, apparent values. An excerpt: The His-tag allows for very simple purification of the HSDH protein since this sequence is bound with high specificity by specific chromatographic material (NTA (Ni-nitrilotriacetate)-modified support material, loaded with divalent nickel ions, for example “His Pur Ni-NTA” (Nimagen B. V., Nijmegen, The Netherlands)). To this end, the cell-free crude extract is applied to a dropping column comprising this material, which dropping column has previously been equilibrated with the disruption buffer (3 to 5 column volumes). Weakly binding protein was removed by washing with 3 to 5 column volumes of wash buffer (20 mM imidazole, 50 mM sodium phosphate, 300 mM NaCl, pH 8). The His-tag-3α-HSDH protein was eluted with imidazole-comprising elution buffer (250 mM imidazole, 50 mM sodium phosphate, 300 mM NaCl, pH 8). The process was carried out at room temperature. The imidazole which was present was to be removed by buffer exchange.
The activity of the 3α-HSDH and of the mutants was determined using a photometric assay, where the decrease in absorbance was measured at 340 nm over a period of 30 seconds.
The targeted exchange of amino acid radicals was performed analogously to Example 2B.
Following cultivation and expression, the cells were harvested, and the specific activities of the cell-free crude extracts were determined at substrate concentrations of 10 mM DHCA. […]

The target of assay [2] is T2, Comamonas testosteroni 3α-HSDH mutant [L68A], N-terminal hexahistidine tag (Comamonas testosteroni, UniProt P80702, L68A).
T2 sequence (P80702 1-257 L68A): T1 sequence (P80702 1-257) with L68A
Experimental: After cultivation and expression, the proteins were purified by means of Ni-NTA chromatography, the specific activities were determined and their kinetic constants were determined.

Assay [3] has as its target T3, Comamonas testosteroni 3α-HSDH mutant [T188S], N-terminal hexahistidine tag (Comamonas testosteroni, UniProt P80702, T188S).
T3 sequence (P80702 1-257 T188S): T1 sequence (P80702 1-257) with T188S
Kind of assay: Kinetics of 3α-HSDH [T188S], N-terminal His tag.

Assay [4] concerns the target T4, Comamonas testosteroni 3α-HSDH, wild type, C-terminal 3×His tag (Comamonas testosteroni, UniProt P80702).
T4 sequence (P80702 with tags, fused parts or gaps): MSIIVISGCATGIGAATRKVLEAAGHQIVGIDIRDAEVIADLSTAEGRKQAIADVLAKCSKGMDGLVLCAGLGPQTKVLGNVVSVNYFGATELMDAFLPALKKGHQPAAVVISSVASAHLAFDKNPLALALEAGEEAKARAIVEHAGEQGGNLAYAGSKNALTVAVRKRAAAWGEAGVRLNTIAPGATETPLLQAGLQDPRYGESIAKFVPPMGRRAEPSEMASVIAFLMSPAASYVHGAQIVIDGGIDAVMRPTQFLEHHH
Kind of assay: Michaelis-Menten kinetics of 3α-HSDH with 3×His tag. The note with it: His tag length 3; DHCA 10 μM-10 mM; NADH 0.2 mM; purified.
Text: The His-tag allows for very simple purification of the HSDH protein since this sequence is bound with high specificity by specific chromatographic material (NTA (Ni-nitrilotriacetate)-modified support material, loaded with divalent nickel ions, for example “His Pur Ni-NTA” (Nimagen B. V., Nijmegen, The Netherlands)). To this end, the cell-free crude extract is applied to a dropping column comprising this material, which dropping column has previously been equilibrated with the disruption buffer (3 to 5 column volumes). Weakly binding protein was removed by washing with 3 to 5 column volumes of wash buffer (20 mM imidazole, 50 mM sodium phosphate, 300 mM NaCl, pH 8). […] The process was carried out at room temperature. The imidazole which was present was to be removed by buffer exchange.
Following expression (25° C., 0.5 mM, IPTG, 20 hours), the protein was purified, and the expression and the purification were checked by means of an SDS gel. […] The NADH concentration was 0.2 mM. Purified protein was employed in the measurements.

Assay [5] addresses T5, Comamonas testosteroni 3α-HSDH dual mutant [L68A/T188A], N-terminal hexahistidine tag (Comamonas testosteroni, UniProt P80702, L68A/T188A).
T5 sequence (P80702 1-257 L68A/T188A): T1 sequence (P80702 1-257) with L68A, T188A

The target of assay [6] is T6, Comamonas testosteroni 3α-HSDH dual mutant [L68A/T188S], N-terminal hexahistidine tag (Comamonas testosteroni, UniProt P80702, L68A/T188S).
T6 sequence (P80702 1-257 L68A/T188S): T1 sequence (P80702 1-257) with L68A, T188S

The mark [7] stands for this setting: Table 14, substrate DHCA, tag N, NADH 0.2 mM, apparent values.
The mark [8] stands for this setting: Table 14, substrate DHCA, tag N, apparent values.

SMILES strings stand for the structures. Numbering of substitutions follows the chain as printed.

The kcat is the maximal rate divided by the concentration of active sites.

On to `C[C@H](CCC(=O)O)[C@H]1CC[C@H]2[C@@H]3C(=O)C[C@@H]4CC(=O)CC[C@]4(C)[C@H]3CC(=O)[C@]12C` [DHCA, dehydrocholic acid], for which the kcat in assay [1] came to 47.1 s⁻¹; in assay [2] (setting [7]) it was 138.0 s⁻¹; in assay [3] (setting [8]), 158.2 s⁻¹; in assay [4], 6.5 ± 2.1 s⁻¹; in assay [5] (setting [8]) it was 111.1 s⁻¹; in assay [6] (setting [8]) it was 91.8 s⁻¹. Further, the vmax was determined as 98.7 ± 4.7 U/mg in assay [1]; 290.0 ± 45.4 U/mg in assay [2] (setting [7]); 332.5 ± 59.9 U/mg in assay [3] (setting [8]); 14.3 ± 4.8 U/mg in assay [4]; 233.5 ± 12.5 U/mg in assay [5] (setting [8]); 193.2 ± 11.4 U/mg in assay [6] (setting [8]). Moreover, the remaining activity at 1000 µM in assay [2] (read-out: residual activity) was approximately 15%; in assay [5] (read-out: residual activity), 85%. The values for the remaining activity at 10000 µM in assay [2] (read-out: residual activity), in assay [5] (read-out: residual activity) and in assay [6] (read-out: residual activity) were approximately 8%, more than 20% and approximately 20%, respectively. Moreover, the remaining activity at 20000 µM in assay [3] (read-out: residual activity) is more than 20%.
